# Results reported in patent US8906911B2, “Chemokine receptor antagonists” (AbbVie Inc., priority 2012, dated 2014).
# Where two headings read alike, the source gives them in different places.
# What was measured:
# [1] = target: T1, human CCR2B (Homo sapiens (Human), UniProt P41597); test: Inhibition of [125I]-labeled MCP-1 binding to hCCR2B (radioligand binding in CHO cells); settings: mean Ki; [125I]-MCP-1 50 pM; CHO cells expressing human CCR2B and Gα16
# Description: CHO cells expressing human CCR2B were generated as follows. cDNA for human CCR2B (cloned from human blood) was cloned into plasmid pcDNA3.1 (from Invitrogen). The resulting plasmids were separately transfected into CHO cells expressing human Gα16 (from Molecular Devices). […] CHO cells expressing rat CCR2 were generated as follows. cDNA for rat CCR2 (cloned from rat macrophage) was cloned into plasmid pEF-flag (from Chinese Academy of Science). The resulting plasmids were transfected into CHO cells expressing human Gα16 (from […]).
# Inhibition of [^125I]-Labeled MCP-1 Binding to hCCR2B
# Radioligand binding assays were performed in CHO cells expressing human CCR2B and Gα16 coupling protein. All compounds were dissolved in DMSO and assays run at a final DMSO concentration of 0.5% (v/v). [^125I]-labeled human MCP-1 was purchased from PerkinElmer. Unlabelled human MCP-1 was purchased from PeproTech.
# Compounds were serially diluted in DMSO before diluting into assay buffer (25 mM HEPES, pH 7.4, 5 mM MgCl2, 1 mM CaCl2, 0.5% BSA) with cryo preserved CHO cells expressing human CCR2B and the Gα16 coupling protein (30×10^3/well) and [^125I]-MCP-1 (50 pM). The reaction was incubated at room temperature for 90 minutes before transferring to GF/C filter membrane (PerkinElmer) pre-treated with 0.3% polyethyleneimine for 2 hours at 4° C. The filter membrane was washed six times with ice cold wash buffer (25 mM HEPES, pH 7.4, 5 mM MgCl2, 1 mM CaCl2, 500 mM NaCl, 0.01% (m/v) azide), dried, and sealed in a RLB sample bag (Agilent Technologies) before adding 5.0 mL Microscint 20 to each bag. Membrane was counted on Microbeta counter where background binding was determined by the presence of 100 nM MCP-1 and control total binding was determined by addition of DMSO in place of the test compound. The radioactivity values (cpm) were used to calculate the percent inhibition at a given compound concentration and the data fit to a sigmoidal curve in a semi-log plot to determine IC50 values. The corresponding Ki value is calculated as follows:
# Ki=IC50/(1+[radioligand]/Kd), where [radioligand] is the concentration of the label and Kd (dissociation constant) is determined in saturation experiment with different concentrations of labeled MCP-1.
# [2] = target: T1, human CCR2B; test: Inhibition of native agonist (human MCP-1)-induced intracellular calcium release, calcium flux assay in CHO cells expressing human CCR2B and Gα16; type: cell-based; settings: for IC50: read-out: hCCR2B IC50; for Kb: read-out: hCCR2B Kb
# Summary of the method: (§1)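 Compound added to Calcium 4 dye-loaded adherent cells (dye loading 60 min, 37° C., HEPES pH 7.4 buffer with probenecid), then agonist: human MCP-1 at 2 nM final for hCCR2B cells, rat MCP-1 at 4 nM final for rCCR2 cells. FLIPR fluorescence change gave IC50. Kb=IC50/(1+[agonist]/EC50). Final DMSO 0.25%.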
# [3] = target: rat CCR2 (Rattus norvegicus (Rat), UniProt O55193); test: Inhibition of native agonist (rat MCP-1)-induced intracellular calcium release, calcium flux assay in CHO cells expressing rat CCR2 and Gα16; type: cell-based; settings: read-out: rCCR2 Kb
# rat CCR2, sequence (O55193 whole entry): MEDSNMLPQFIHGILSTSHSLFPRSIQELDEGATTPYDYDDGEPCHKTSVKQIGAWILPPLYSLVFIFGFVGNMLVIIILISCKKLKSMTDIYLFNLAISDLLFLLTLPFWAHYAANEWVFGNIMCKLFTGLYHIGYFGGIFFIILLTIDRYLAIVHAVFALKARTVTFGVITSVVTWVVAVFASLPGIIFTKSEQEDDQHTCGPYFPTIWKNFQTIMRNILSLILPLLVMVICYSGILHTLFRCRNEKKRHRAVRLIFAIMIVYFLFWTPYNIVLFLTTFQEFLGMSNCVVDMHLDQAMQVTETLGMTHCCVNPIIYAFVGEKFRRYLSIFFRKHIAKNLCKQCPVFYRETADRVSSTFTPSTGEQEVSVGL
# Summary of the method: as §1
# T1 sequence (P41597 other isoform, or with tags, fused parts or gaps): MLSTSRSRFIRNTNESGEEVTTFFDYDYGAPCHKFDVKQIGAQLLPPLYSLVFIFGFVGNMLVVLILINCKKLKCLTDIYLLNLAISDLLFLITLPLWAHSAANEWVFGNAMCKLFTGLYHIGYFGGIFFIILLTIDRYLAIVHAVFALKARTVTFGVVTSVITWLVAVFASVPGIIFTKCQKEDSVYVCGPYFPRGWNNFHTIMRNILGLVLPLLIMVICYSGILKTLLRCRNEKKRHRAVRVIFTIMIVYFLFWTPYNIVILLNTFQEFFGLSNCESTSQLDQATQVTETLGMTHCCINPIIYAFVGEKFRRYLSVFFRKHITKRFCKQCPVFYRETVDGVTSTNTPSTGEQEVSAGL
Ki [1] [µM],Kb [2] [µM],Kb [3] [µM],"IC50 ([2]; calcium flux, human MCP-1 2 nM) [µM]",Compound,IC50 [2] [µM]
0.207,0.019,0.006,0.0764,"CO[C@@H]1COCC[C@@H]1N[C@@H]1C[C@H]2CCC[C@@]2(C(=O)N2C[C@@H]3C[C@H]2CN3c2cccc(C(F)(F)F)c2)C1 [Example 18, 1,5-anhydro-2,3-dideoxy-4-O-methyl-3-{[(2R,3aR,6aR)-3a-({(1S,4S)-5-[3-(trifluoromethyl)phenyl]-2,5-diazabicyclo[2.2.1]hept-2-yl}carbonyl)octahydropentalen-2-yl]amino}-D-erythro-pentitol]",
0.306,0.057,0.012,0.233,"CO[C@@H]1COCC[C@@H]1N[C@@H]1C[C@H]2CCC[C@@]2(C(=O)N2C[C@@H]3C[C@H]2CN3c2ccc(C)c(C(F)(F)F)c2)C1 [Example 19, 1,5-anhydro-2,3-dideoxy-4-O-methyl-3-{[(2R,3aR,6aR)-3a-({(1S,4S)-5-[4-methyl-3-(trifluoromethyl)phenyl]-2,5-diazabicyclo[2.2.1]hept-2-yl}carbonyl)octahydropentalen-2-yl]amino}-D-erythro-pentitol]",
0.112,0.045,0.018,0.182,"CO[C@@H]1COCC[C@@H]1N[C@@H]1C[C@H]2CCC[C@@]2(C(=O)N2C[C@@H]3C[C@H]2CN3c2ccc(F)c(Cl)c2)C1 [Example 20, 1,5-anhydro-3-{[(2R,3aR,6aR)-3a-{[(1S,4S)-5-(3-chloro-4-fluorophenyl)-2,5-diazabicyclo[2.2.1]hept-2-yl]carbonyl}octahydropentalen-2-yl]amino}-2,3-dideoxy-4-O-methyl-D-erythro-pentitol]",
0.12,0.038,0.012,0.153,"CO[C@@H]1COCC[C@@H]1N[C@@H]1C[C@H]2CCC[C@@]2(C(=O)N2C[C@@H]3C[C@H]2CN3c2cccc(C(F)(F)F)n2)C1 [Example 22, 1,5-anhydro-2,3-dideoxy-4-O-methyl-3-{[(2R,3aR,6aR)-3a-({(1S,4S)-5-[6-(trifluoromethyl)pyridin-2-yl]-2,5-diazabicyclo[2.2.1]hept-2-yl}carbonyl)octahydropentalen-2-yl]amino}-D-erythro-pentitol]",
0.271,0.023,0.005,0.0922,"CO[C@@H]1COCC[C@@H]1N[C@@H]1C[C@H]2CCC[C@@]2(C(=O)N2C[C@@H]3C[C@H]2CN3c2cc(F)cc(C(F)(F)F)c2)C1 [Example 25, 1,5-anhydro-2,3-dideoxy-3-{[(2R,3aR,6aR)-3a-({(1S,4S)-5-[3-fluoro-5-(trifluoromethyl)phenyl]-2,5-diazabicyclo[2.2.1]hept-2-yl}carbonyl)octahydropentalen-2-yl]amino}-4-O-methyl-D-erythro-pentitol]",
0.792,0.147,0.022,0.598,"CO[C@@H]1COCC[C@@H]1N[C@@H]1C[C@H]2CCC[C@@]2(C(=O)N2C[C@@H]3C[C@H]2CN3c2ccnc(C(F)(F)F)c2)C1 [Example 26, 1,5-anhydro-2,3-dideoxy-4-O-methyl-3-{[(2R,3aR,6aR)-3a-({(1S,4S)-5-[2-(trifluoromethyl)pyridin-4-yl]-2,5-diazabicyclo[2.2.1]hept-2-yl}carbonyl)octahydropentalen-2-yl]amino}-D-erythro-pentitol]",
0.444,0.096,0.019,0.391,"CO[C@@H]1COCC[C@@H]1N[C@@H]1C[C@H]2CCC[C@@]2(C(=O)N2C[C@@H]3C[C@H]2CN3c2ccnc(C(F)(F)F)n2)C1 [Example 27, 1,5-anhydro-2,3-dideoxy-4-O-methyl-3-{[(2R,3aR,6aR)-3a-({(1S,4S)-5-[2-(trifluoromethyl)pyrimidin-4-yl]-2,5-diazabicyclo[2.2.1]hept-2-yl}carbonyl)octahydropentalen-2-yl]amino}-D-erythro-pentitol]",
0.032,0.005,0.005,0.0198,"CO[C@@H]1COCC[C@@H]1N[C@@H]1C[C@H]2CCC[C@@]2(C(=O)N2C[C@@H]3C[C@H]2CN3c2cc(C(F)(F)F)ccc2C#N)C1 [Example 28, 1,5-anhydro-3-{[(2R,3aR,6aR)-3a-({(1S,4S)-5-[2-cyano-5-(trifluoromethyl)phenyl]-2,5-diazabicyclo[2.2.1]hept-2-yl}carbonyl)octahydropentalen-2-yl]amino}-2,3-dideoxy-4-O-methyl-D-erythro-pentitol]",
0.473,0.036,0.008,0.148,"CO[C@@H]1COCC[C@@H]1N[C@@H]1C[C@H]2CCC[C@@]2(C(=O)N2C[C@@H]3C[C@H]2CN3c2cccc(OC(F)(F)F)c2)C1 [Example 29, 1,5-anhydro-2,3-dideoxy-4-O-methyl-3-{[(2R,3aR,6aR)-3a-({(1S,4S)-5-[3-(trifluoromethoxy)phenyl]-2,5-diazabicyclo[2.2.1]hept-2-yl}carbonyl)octahydropentalen-2-yl]amino}-D-erythro-pentitol]",
0.831,0.023,0.004,0.0955,"CO[C@@H]1COCC[C@@H]1N[C@@H]1C[C@H]2CCC[C@@]2(C(=O)N2C[C@@H]3C[C@H]2CN3c2nc(C(F)(F)F)cs2)C1 [Example 30, 1,5-anhydro-2,3-dideoxy-4-O-methyl-3-{[(2R,3aR,6aR)-3a-({(1S,4S)-5-[4-(trifluoromethyl)-1,3-thiazol-2-yl]-2,5-diazabicyclo[2.2.1]hept-2-yl}carbonyl)octahydropentalen-2-yl]amino}-D-erythro-pentitol]",
1.06,0.077,0.044,0.314,"CO[C@@H]1COCC[C@@H]1N[C@@H]1C[C@H]2CCC[C@@]2(C(=O)N2C[C@@H]3C[C@H]2CN3c2ncc(C(F)(F)F)cc2Cl)C1 [Example 32, 1,5-anhydro-3-{[(2R,3aR,6aR)-3a-({(1S,4S)-5-[3-chloro-5-(trifluoromethyl)pyridin-2-yl]-2,5-diazabicyclo[2.2.1]hept-2-yl}carbonyl)octahydropentalen-2-yl]amino}-2,3-dideoxy-4-O-methyl-D-erythro-pentitol]",
1.06,0.075,0.024,0.305,"CO[C@@H]1COCC[C@@H]1N[C@@H]1C[C@H]2CCC[C@@]2(C(=O)N2C[C@@H]3C[C@H]2CN3c2cc(C#N)ccc2C(F)(F)F)C1 [Example 36, 1,5-anhydro-3-{[(2R,3aR,6aR)-3a-({(1S,4S)-5-[5-cyano-2-(trifluoromethyl)phenyl]-2,5-diazabicyclo[2.2.1]hept-2-yl}carbonyl)octahydropentalen-2-yl]amino}-2,3-dideoxy-4-O-methyl-D-erythro-pentitol]",

Compound,Ki [1] [µM],Kb [2] [µM],Kb [3] [µM],"IC50 ([2]; calcium flux, human MCP-1 2 nM) [µM]",IC50 [2] [µM]
"CO[C@@H]1COCC[C@@H]1N[C@@H]1C[C@H]2CCC[C@@]2(C(=O)N2C[C@@H]3C[C@H]2CN3c2cc(C(F)(F)F)ccc2C)C1 [Example 16, 1,5-anhydro-2,3-dideoxy-4-O-methyl-3-{[(2R,3aR,6aR)-3a-({(1S,4S)-5-[2-methyl-5-(trifluoromethyl)phenyl]-2,5-diazabicyclo[2.2.1]hept-2-yl}carbonyl)octahydropentalen-2-yl]amino}-D-erythro-pentitol]",0.199,0.026,0.007,,0.106
